Test results: ChEMBL document CHEMBL1201862, “PubChem BioAssay data set” (2004)
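Assay format: 96-well plates, 48-hour exposure. The concentration for 50% growth inhibition is given as GI50.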 Active and inactive are the calls of the source. Cut-off read from the data, not from the text of the source: active = GI50 up to about 1.1 µM and inactive = higher.

Tests used:
Test in all cases: inhibition of tumour cell growth, NCI panel, 48 h
786-0 = tested on: 786-0
A498 = tested on: A498
A549 = tested on: A549
ACHN = tested on: ACHN
CCRF-CEM = tested on: CCRF-CEM
COLO 205 = tested on: COLO 205
DLD-1 = tested on: DLD-1
DMS-114 = tested on: DMS-114
DMS-273 = tested on: DMS-273
EKVX = tested on: EKVX
HCC 2998 = tested on: HCC 2998
HCT-116 = tested on: HCT-116
HCT-15 = tested on: HCT-15
HL-60 = tested on: HL-60
HOP-62 = tested on: HOP-62
HT-29 = tested on: HT-29
IGROV-1 = tested on: IGROV-1
K562 = tested on: K562
KM-20L2 = tested on: KM-20L2
KM12 = tested on: KM12
LOX IMVI = tested on: LOX IMVI
LXFL 529 = tested on: LXFL 529
M19-MEL = tested on: M19-MEL
MOLT-4 = tested on: MOLT-4
Malme-3M = tested on: Malme-3M
NCI-H226 = tested on: NCI-H226
NCI-H23 = tested on: NCI-H23
NCI-H460 = tested on: NCI-H460
NCI-H522 = tested on: NCI-H522
OVCAR-3 = tested on: OVCAR-3
OVCAR-4 = tested on: OVCAR-4
OVCAR-5 = tested on: OVCAR-5
OVCAR-8 = tested on: OVCAR-8
RPMI-8226 = tested on: RPMI-8226
RXF 393 = tested on: RXF 393
SF-268 = tested on: SF-268
SF-295 = tested on: SF-295
SK-MEL-28 = tested on: SK-MEL-28
SK-MEL-5 = tested on: SK-MEL-5
SN12C = tested on: SN12C
SNB-19 = tested on: SNB-19
SNB-78 = tested on: SNB-78
SR = tested on: SR
SW-620 = tested on: SW-620
TK-10 = tested on: TK-10
U-251 = tested on: U-251
UACC-257 = tested on: UACC-257
UO-31 = tested on: UO-31
XF498 = tested on: XF498
CAKI-1 = tested on: CAKI-1
HOP-18 = tested on: HOP-18
HOP-92 = tested on: HOP-92
M14 = tested on: M14
SF-539 = tested on: SF-539
UACC-62 = tested on: UACC-62

For `COc1ccc(C2=NN(c3ccccc3)C[N+](c3ccc(OC)cc3)=N2)cc1`, the GI50 (786-0) was 49.9 µM (inactive), the GI50 (A498) was > 100 µM (inactive) and the GI50 (A549) was 48 µM (inactive). For the same compound, the GI50 (ACHN) was 30.3 µM (inactive), the GI50 (CCRF-CEM) was 23.2 µM (inactive) and the GI50 (COLO 205) was > 10 µM (inactive). For the same compound, the GI50 (DLD-1) was 28.8 µM (inactive), the GI50 (DMS-114) was 24.2 µM (inactive) and the GI50 (DMS-273) was 24.5 µM (inactive). The GI50 (EKVX) was 33.8 µM (inactive), the GI50 (HCC 2998) was 37.8 µM (inactive) and the GI50 (HCT-116) was 33.7 µM (inactive). The GI50 (HCT-15) was 43.7 µM, the GI50 (HL-60) was 24 µM (inactive) and the GI50 (HOP-62) was 66.1 µM (inactive). For the same compound, the GI50 (HT-29) was 57.3 µM (inactive), the GI50 (IGROV-1) was 21.3 µM (inactive) and the GI50 (K562) was 19.2 µM (inactive). For the same compound, the GI50 (KM-20L2) was 29.6 µM (inactive), the GI50 (KM12) was 21.3 µM (inactive) and the GI50 (LOX IMVI) was 17.6 µM (inactive). For the same compound, the GI50 (LXFL 529) was 17.2 µM (inactive), the GI50 (M19-MEL) was 30.5 µM (inactive) and the GI50 (MOLT-4) was 20.3 µM (inactive). The GI50 (Malme-3M) was 21.2 µM (inactive), the GI50 (NCI-H226) was 15.7 µM (inactive) and the GI50 (NCI-H23) was 29.9 µM (inactive). The GI50 (NCI-H460) was 47.5 µM (inactive), the GI50 (NCI-H522) was 15.1 µM (inactive) and the GI50 (OVCAR-3) was 22 µM (inactive). The GI50 (OVCAR-4) was 18.6 µM (inactive), the GI50 (OVCAR-5) was 25 µM (inactive) and the GI50 (OVCAR-8) was 85.7 µM (inactive). The GI50 (RPMI-8226) was 23.2 µM (inactive), the GI50 (RXF 393) was 26 µM (inactive) and the GI50 (SF-268) was 35.9 µM (inactive). For the same compound, the GI50 (SF-295) was 59.4 µM (inactive), the GI50 (SK-MEL-28) was 26.9 µM (inactive) and the GI50 (SK-MEL-5) was 14.7 µM (inactive). The GI50 (SN12C) was 54.1 µM (inactive), the GI50 (SNB-19) was 28.4 µM (inactive) and the GI50 (SNB-78) was 28.2 µM (inactive). For the same compound, the GI50 (SR) was 34 µM (inactive), the GI50 (SW-620) was 24.5 µM (inactive) and the GI50 (TK-10) was 42.4 µM (inactive). For the same compound, the GI50 (U-251) was 20.4 µM (inactive), the GI50 (UACC-257) was 76.2 µM (inactive) and the GI50 (UO-31) was 18.9 µM (inactive). The GI50 (XF498) was 18.8 µM (inactive).
In the case of `COC1OC(CBr)C(OC(=O)c2ccccc2)C(O)C1Br` (stereo not given), the GI50 (786-0) is reported as > 100 µM (inactive), the GI50 (A498) is reported as > 100 µM (inactive) and the GI50 (A549) is reported as > 100 µM (inactive). The GI50 (CAKI-1) was > 100 µM (inactive), the GI50 (CCRF-CEM) was > 100 µM (inactive) and the GI50 (COLO 205) was > 100 µM (inactive). The GI50 (DLD-1) was > 100 µM (inactive), the GI50 (DMS-273) was > 100 µM (inactive) and the GI50 (HCC 2998) was > 100 µM (inactive). For the same compound, the GI50 (HCT-116) was > 100 µM (inactive), the GI50 (HCT-15) was > 100 µM and the GI50 (HL-60) was > 100 µM (inactive). The GI50 (HOP-18) was > 100 µM (inactive), the GI50 (HOP-62) was > 100 µM (inactive) and the GI50 (HOP-92) was > 100 µM (inactive). The GI50 (HT-29) was > 100 µM (inactive), the GI50 (IGROV-1) was > 10 µM (inactive) and the GI50 (K562) was > 100 µM (inactive). For the same compound, the GI50 (KM-20L2) was > 100 µM (inactive), the GI50 (KM12) was > 100 µM (inactive) and the GI50 (LOX IMVI) was > 100 µM (inactive). The GI50 (LXFL 529) was > 100 µM (inactive), the GI50 (M14) was > 100 µM (inactive) and the GI50 (M19-MEL) was > 100 µM (inactive). The GI50 (MOLT-4) was > 100 µM (inactive), the GI50 (Malme-3M) was > 100 µM (inactive) and the GI50 (NCI-H226) was > 100 µM (inactive). The GI50 (NCI-H23) was > 100 µM (inactive), the GI50 (NCI-H460) was > 100 µM (inactive) and the GI50 (NCI-H522) was > 100 µM (inactive). The GI50 (OVCAR-3) was > 100 µM (inactive), the GI50 (OVCAR-4) was > 100 µM (inactive) and the GI50 (OVCAR-5) was > 100 µM (inactive). For the same compound, the GI50 (OVCAR-8) was > 100 µM (inactive), the GI50 (RPMI-8226) was > 100 µM (inactive) and the GI50 (RXF 393) was > 100 µM (inactive). For the same compound, the GI50 (SF-268) was > 100 µM (inactive), the GI50 (SF-295) was > 100 µM (inactive) and the GI50 (SF-539) was > 100 µM (inactive). For the same compound, the GI50 (SK-MEL-28) was > 100 µM (inactive), the GI50 (SK-MEL-5) was > 100 µM (inactive) and the GI50 (SN12C) was > 100 µM (inactive). For the same compound, the GI50 (SNB-19) was > 100 µM (inactive), the GI50 (SNB-78) was > 100 µM (inactive) and the GI50 (SR) was > 100 µM (inactive). For the same compound, the GI50 (SW-620) was > 100 µM (inactive), the GI50 (TK-10) was > 100 µM (inactive) and the GI50 (U-251) was > 100 µM (inactive). The GI50 (UACC-257) was > 10 µM (inactive), the GI50 (UACC-62) was > 100 µM (inactive) and the GI50 (XF498) was > 10 µM (inactive).
